This note sets out measurements from patent US11926627B1 (priority 2023, dated 2024).

The assay deals with Mycobacterium tuberculosis H37Rv (ATCC: 25177). Description: Resazurin Microplate Assay (REMA), antitubercular activity against H37Rv. Format: cell-based. The following applies: 192 h, read-out: Antitubercular activity against Mycobacterium tuberculosis H37Rv (MIC). On the technique in general: Resazurin is reduced to fluorescent resorufin, in cell work by metabolically active cells.

Setting [1] is: H37Rv, ATCC: 25177, REMA, Middlebrook 7H9 broth, 8 days incubation at 37° C. then resazurin overnight.

≈ marks a conversion by molar mass, not a printed value. Like-named read-outs stand apart in the source and are kept apart here.

Usually MIC stands for the least concentration at which growth counts as inhibited. For `COC(=O)c1c(C(=O)OC)c2ccc3cc(C)ccc3n2c1C(=O)c1ccc(F)cc1` [7-METHYL-QUIN1, Dimethyl 1-(4-fluorobenzoyl)-7-methylpyrrolo[1,2-α]quinoline-2,3-dicarboxylate], the minimal inhibitory concentration (MIC) (H37RV) worked out at 0.5 µg/mL (≈ 1.19 µM).

On to `COC(=O)c1c(C(=O)OC)c2ccc3cc(C)ccc3n2c1C(=O)c1ccc(Br)cc1` [7-METHYL-QUIN2, Dimethyl 1-(4-bromobenzoyl)-7-methylpyrrolo[1,2-α]quinoline-2,3-dicarboxylate], for which, under setting [1], the MIC was found to be 2 µg/mL (≈ 4.16 µM).

`CCOC(=O)c1cc(C(=O)c2ccc(Cl)cc2)n2c1ccc1cc(C)ccc12` [7-METHYL-QUIN3, Ethyl 1-(4-chlorobenzoyl)-7-methylpyrrolo[1,2-α]quinoline-3-carboxylate]: the MIC under setting [1] was 4 µg/mL (≈ 10.2 µM).

Turning to `COC(=O)c1c(C(=O)OC)c2ccc3cc(C)ccc3n2c1C(=O)c1ccc(Cl)cc1` [7-METHYL-QUIN4, Dimethyl 1-(4-chlorobenzoyl)-7-methylpyrrolo[1,2-α]quinoline-2,3-dicarboxylate], under setting [1], the MIC is 4 µg/mL (≈ 9.18 µM).
